Assay results taken from patent US11648254B2 (Kumquat Biosciences Inc., priority 2021, dated 2023).
Where two headings read alike, the source gives them in different places.

Tests used:
SOS1 = SOS1 (Homo sapiens (Human), UniProt Q07889); experiment: Ras-SOS interaction assay (HTRF); type: biochemical
[1] = system: MIA PaCa-2 cells (K-Ras G12C); experiment: Ras-SOS cellular growth inhibition assay (CellTiter-Glo, 3D); type: cell-based; conditions: Homo sapiens
Method in brief: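 MIA PaCa-2 cells grown in ultra-low-attachment plates (3D) in DMEM/Ham's F12 with 10% FCS and 2.5% horse serum, treated the day after seeding with a 9-point 3-fold compound series for about 5 days. Viability by CellTiter-Glo luminescence; IC50 from four-parameter fit.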

[2] = system: NCI-H1975 cells (EGFR T790M L858R); experiment: EGFR-SOS cellular inhibition assay (CellTiter-Glo, 3D); type: cell-based; conditions: Homo sapiens
[3] = K-RasG13D utilized, read-out: IC50 inhibition of SOS
[4] = K-RasG13D, read-out: IC50 value against SOS1
[5] = MIA PaCa-2, 120 h, MIA PaCa-2, 3D proliferation, about 5 days, read-out: Bio-Cell-Prolif-3D (MiaPaca2 IC50)
[6] = MIA PaCa-2, MIA PaCa-2, read-out: IC50 in inhibiting MIA PaCa-2 cell growth
[7] = 120 h, NCI-H1975, 3D proliferation, about 5 days, read-out: Bio-Cell-Prolif-3D (H1975 IC50)
[8] = NCI-H1975, EGFR T790M L858R, read-out: IC50 in inhibiting growth of NCI-H1975 cell line

SOS1, sequence (Q07889 564-1049): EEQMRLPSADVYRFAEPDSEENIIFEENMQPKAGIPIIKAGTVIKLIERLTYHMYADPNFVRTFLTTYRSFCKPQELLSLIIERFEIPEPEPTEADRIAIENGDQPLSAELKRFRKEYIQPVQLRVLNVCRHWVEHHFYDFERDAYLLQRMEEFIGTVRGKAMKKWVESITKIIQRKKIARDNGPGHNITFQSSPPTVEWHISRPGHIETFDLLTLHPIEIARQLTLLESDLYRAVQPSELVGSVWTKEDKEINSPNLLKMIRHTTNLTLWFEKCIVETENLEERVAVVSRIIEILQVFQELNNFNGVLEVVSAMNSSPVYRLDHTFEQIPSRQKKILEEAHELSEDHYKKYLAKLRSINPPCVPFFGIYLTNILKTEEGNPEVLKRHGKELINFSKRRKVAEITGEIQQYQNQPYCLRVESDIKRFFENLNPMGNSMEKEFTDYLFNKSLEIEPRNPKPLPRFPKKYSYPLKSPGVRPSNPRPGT

SMILES | IC50 (SOS1; [3]) [nM] | IC50 (SOS1; [4]) [nM] | IC50 [1, 5] [nM] | IC50 [1, 6] [nM] | IC50 [2, 7] [nM] | IC50 [2, 8] [nM]
Cc1c([C@@H](C)Nc2ncnc3nc(Cl)c(C4(C#N)CC4)cc23)cccc1C(F)(F)F [Compound 364, (R)-1-(7-chloro-4-((1-(2-methyl-3-(trifluoromethyl)phenyl)ethyl)amino)pyrido[2,3-d]pyrimidin-6-yl) cyclopropane-1-carbonitrile] | 100 to 1000 |  | 1000 to 10000 |  | ≤ 1000 | < 500
CCN1CCN(c2cc3c(N[C@H](C)c4cccc(C(F)(F)F)c4F)nc(C)nc3nc2OC)CC1 [Compound 383, (R)-6-(4-ethylpiperazin-1-yl)-N-(1-(2-fluoro-3-(trifluoromethyl)phenyl)ethyl)-7-methoxy-2-methylpyrido[2,3-d]pyrimidin-4-amine] | < 100 | < 50 | ≤ 1000 | < 500 | ≤ 1000 | < 500
CC(C)N1CCC(c2cc3c(N[C@H](C)c4cccc(C(F)(F)F)c4F)ncnc3nc2Cl)CC1 [Compound 384, (R)-7-chloro-N-(1-(2-fluoro-3-(trifluoromethyl)phenyl)ethyl)-6-(1-isopropylpiperidin-4-yl)pyrido[2,3-d] pyrimidin-4-amine] | < 100 | < 50 | ≤ 1000 | < 500 | ≤ 1000 | < 500
Cc1c([C@@H](C)Nc2ncnc3nc(Cl)c(C4CCN(C(C)C)CC4)cc23)cccc1C(F)(F)F [Compound 385, (R)-7-chloro-6-(1-isopropylpiperidin-4-yl)-N-(1-(2-methyl-3-(trifluoromethyl)phenyl)ethyl)pyrido [2,3-d]pyrimidin-4-amine] | < 100 | < 50 | ≤ 1000 | < 500 | ≤ 1000 | < 500
COc1nc2ncnc(N[C@H](C)c3cccc(C(F)(F)F)c3C)c2cc1N1CCN(C)CC1 [Compound 386, (R)-7-methoxy-N-(1-(2-methyl-3-(trifluoromethyl)phenyl)ethyl)-6-(4-methylpiperazin-1-yl)pyrido[2,3-d] pyrimidin-4-amine] | < 100 | < 50 | ≤ 1000 | < 500 | ≤ 1000 | < 500
Cc1nc(N[C@H](C)c2cccc(C(F)(F)F)c2F)c2cc(N3CCN(C(C)C)CC3)c(Cl)nc2n1 [Compound 387, (R)-7-chloro-N-(1-(2-fluoro-3-(trifluoromethyl)phenyl)ethyl)-6-(4-isopropylpiperazin-1-yl)-2-methylpyrido[2,3-d] pyrimidin-4-amine] | < 100 | < 50 | ≤ 1000 | < 500 | ≤ 1000 | < 500
Cc1nc(N[C@H](C)c2cccc(C(F)(F)F)c2C)c2cc(C3CCS(=O)(=O)CC3)c(Cl)nc2n1 [Compound 388, (R)-4-(7-chloro-2-methyl-4-((1-(2-methyl-3-(trifluoromethyl)phenyl)ethyl)amino)pyrido[2,3-d]pyrimidin-6-yl)tetrahydro-2H-thiopyran 1,1-dioxide] | < 100 | < 50 | ≤ 1000 | < 500 | ≤ 1000 | < 500
Cc1nc(N[C@H](C)c2cccc(C(F)F)c2F)c2cc(C3CCS(=O)(=O)CC3)c(Cl)nc2n1 [Compound 389, (R)-4-(7-chloro-4-((1-(3-(difluoromethyl)-2-fluorophenyl)ethyl)amino)-2-methylpyrido[2,3-d]pyrimidin-6-yl)tetrahydro-2H-thiopyran 1,1-dioxide] | < 100 | < 50 | ≤ 1000 | < 500 | ≤ 1000 | < 500
Cc1nc(N[C@H](C)c2cccc(C(F)(F)F)c2C)c2cc(N3CCS(=O)(=O)CC3)c(Cl)nc2n1 [Compound 390, (R)-4-(7-chloro-2-methyl-4-((1-(2-methyl-3-(trifluoromethyl)phenyl)ethyl)amino)pyrido[2,3-d]pyrimidin-6-yl) thiomorpholine 1,1-dioxide] | < 100 | < 50 | ≤ 1000 | < 500 | ≤ 1000 | < 500
Cc1nc(N[C@H](C)c2cccc(C(F)(F)F)c2F)c2cc(C3CCN(C(C)C)CC3)c(Cl)nc2n1 [Compound 391, (R)-7-chloro-N-(1-(2-fluoro-3-(trifluoromethyl)phenyl)ethyl)-6-(1-isopropylpiperidin-4-yl)-2-methylpyrido[2,3-d] pyrimidin-4-amine] | < 100 | < 50 | ≤ 1000 | < 500 | ≤ 1000 | < 500
Cc1nc(N[C@H](C)c2cccc(C(F)(F)F)c2C)c2cc(C3CCN(C(C)C)CC3)c(Cl)nc2n1 [Compound 392, (R)-7-chloro-6-(1-isopropylpiperidin-4-yl)-2-methyl-N-(1-(2-methyl-3-(trifluoromethyl)phenyl)ethyl)pyrido [2,3-d]pyrimidin-4-amine] | < 100 | < 50 | ≤ 1000 | < 500 | ≤ 1000 | < 500
C[C@@H](Nc1ncnc2nc(Cl)c(C3CCS(=O)(=O)CC3)cc12)c1cccc(C(F)F)c1F [Compound 393, (R)-4-(7-chloro-4-((1-(3-(difluoromethyl)-2-fluorophenyl)ethyl)amino)pyrido [2,3-d]pyrimidin-6-yl)tetrahydro-2H-thiopyran 1,1-dioxide] | < 100 | < 50 | ≤ 1000 | < 500 | ≤ 1000 | < 500

Other lines, results leading:

IC50 (SOS1; [3]) [nM] | IC50 (SOS1; [4]) [nM] | IC50 [1, 5] [nM] | IC50 [1, 6] [nM] | IC50 [2, 7] [nM] | IC50 [2, 8] [nM] | SMILES
< 100 | < 50 | ≤ 1000 | < 500 | ≤ 1000 | < 500 | COCCOc1nc2nc(C)nc(N[C@H](C)c3cccc(C(F)F)c3F)c2cc1N1CCN(C(C)C)CC1 [Compound 360, (R)-N-(1-(3-(difluoromethyl)-2-fluorophenyl)ethyl)-6-(4-isopropylpiperazin-1-yl)-7-(2-methoxyethoxy)-2-methylpyrido [2,3-d]pyrimidin-4-amine]
< 100 | < 50 | 1000 to 10000 |  | ≤ 1000 | < 500 | Cc1nc(N[C@H](C)c2cccc(C(F)F)c2F)c2cc(N3CCN(C(C)C)CC3)c(OC3CNC3)nc2n1 [Compound 367, (R)-7-(azetidin-3-yloxy)-N-(1-(3-(difluoromethyl)-2-fluorophenyl)ethyl)-6-(4-isopropylpiperazin-1-yl)-2-methylpyrido[2,3-d]pyrimidin-4-amine]
< 100 | < 50 | 1000 to 10000 |  | ≤ 1000 | < 500 | COCCOc1nc2nc(C)nc(N[C@H](C)c3cccc(C(F)F)c3F)c2cc1C1CCS(=N)(=O)CC1 (stereo partly drawn) [Compound 368, (R)-4-(4-((1-(3-(difluoromethyl)-2-fluorophenyl)ethyl)amino)-7-(2-methoxyethoxy)-2-methylpyrido[2,3-d]pyrimidin-6-yl)-1-iminohexahydro-1l6-thiopyran 1-oxide]
< 100 | < 50 | 1000 to 10000 |  | ≤ 1000 |  | Cc1nc(N[C@H](C)c2cccc(C(F)F)c2F)c2cc(C3CCN(C(C)C)CC3)c(OCCN(C)C)nc2n1 [Compound 369, (R)-N-(1-(3-(difluoromethyl)-2-fluorophenyl)ethyl)-7-(2-(dimethylamino)ethoxy)-6-(1-isopropylpiperidin-4-yl)-2-methylpyrido[2,3-d] pyrimidin-4-amine]
< 100 | < 50 | ≤ 1000 |  | ≤ 1000 |  | Cc1nc(N[C@H](C)c2cccc(C(F)F)c2F)c2cc(N3CCN(C(C)C)CC3)c(OC3CN(C)C3)nc2n1 [Compound 370, (R)-N-(1-(3-(difluoromethyl)-2-fluorophenyl)ethyl)-6-(4-isopropylpiperazin-1-yl)-2-methyl-7-((1-methylazetidin-3-yl)oxy)pyrido[2,3-d]pyrimidin-4-amine]
< 100 |  | ≤ 1000 | < 500 | ≤ 1000 | < 500 | CCN1CCN(c2cc3c(N[C@H](C)c4cccc(C(F)F)c4F)ncnc3nc2OC)CC1 [Compound 372, (R)-N-(1-(3-(difluoromethyl)-2-fluorophenyl)ethyl)-6-(4-ethylpiperazin-1-yl)-7-methoxypyrido[2,3-d]pyrimidin-4-amine]
< 100 | < 50 | ≤ 1000 | < 500 | ≤ 1000 | < 500 | COc1nc2nc(C)nc(N[C@H](C)c3cccc(C(F)(F)C4CCN(C(C)C)CC4)c3F)c2cc1C1CCS(=O)(=O)CC1 [Compound 379, (R)-4-(4-((1-(3-(difluoro(1-isopropylpiperidin-4-yl)methyl)-2-fluorophenyl)ethyl)amino)-7-methoxy-2-methylpyrido[2,3-d]pyrimidin-6-yl)tetrahydro-2H-thiopyran 1,1-dioxide]
< 100 | < 50 | ≤ 1000 | < 500 | ≤ 1000 | < 500 | COc1nc2ncnc(N[C@H](C)c3cccc(C(F)(F)F)c3C)c2cc1N1CCS(=O)(=O)CC1 [Compound 381, (R)-4-(7-methoxy-4-((1-(2-methyl-3-(trifluoromethyl)phenyl)ethyl)amino)pyrido[2,3-d]pyrimidin-6-yl) thiomorpholine 1,1-dioxide]
